Publication PMC11748363, “Antimicrobial and Antiproliferative Properties of 2‐Phenyl‐N‐(Pyridin‐2‐yl)acetamides” (Chemical Biology & Drug Design, 2025)
Values after ≈ are worked out from the molar mass of the structure shown. Like-named read-outs stand apart in the source and are kept apart here.

What was measured:
[1] = tested on: Mycobacterium tuberculosis H37Ra; assay: Antimycobacterial microdilution broth MIC (resazurin), Mtb H37Ra; format: cell-based; details: for MIC: Mycobacterium tuberculosis, H37RA, read-out: MIC Mtb H37Ra
[2] = tested on: Mycolicibacterium smegmatis DSM 43465; assay: Antimycobacterial microdilution broth MIC (resazurin), M. smegmatis; format: cell-based; details: DSM43465, read-out: MIC M. smegmatis
[3] = tested on: Mycolicibacterium aurum DSM 43999; assay: Antimycobacterial microdilution broth MIC (resazurin), M. aurum; format: cell-based; details: DSM43999, read-out: MIC M. aurum
HepG2 cell line = assay: Cytotoxicity CellTiter 96, HepG2; format: cell-based, human; details: Homo sapiens, HepG2, 24 h, 24 h incubation; ^c compound precipitated in the testing medium; ^d over the limit of tested concentrations
Method: The cytotoxicity of final compounds was determined in human hepatocellular carcinoma cell line HepG2.
Cytotoxicity determination
Human hepatocellular liver carcinoma cell line HepG2 purchased from Health Protection Agency Culture Collections (ECACC, Salisbury, UK) was cultured in MEM (Minimum Essentials Eagle Medium, Sigma–Aldrich) supplemented with 10% fetal bovine serum (PAA Laboratories, Pasching, Austria), 1% L-glutamine solution (Sigma–Aldrich) and non-essential amino acid solution (Sigma–Aldrich) in a humidified atmosphere containing 5% CO2 at 37 °C. For subculturing, the cells were harvested after trypsin/EDTA (Sigma–Aldrich) treatment at 37 °C. To evaluate cytotoxicity, the cells treated with the tested substances were used as experimental groups whereas untreated HepG2 cells served as controls. The cells were seeded in density 10,000 cells per well in a 96 well plate. The next day the cells were treated with each of the tested substances dissolved in DMSO. The tested substances were
in triplicates according to their solubility. Simultaneously, the controls representing 100% cell viability, 0% cell viability (the cells treated with 10% DMSO), no cell control and vehiculum controls were also
the reagent from the kit CellTiter 96 AQueous One Solution Cell Proliferation Assay (CellTiter 96; PROMEGA, Fitchburg, USA) was added. After 2h incubation at 37 °C, absorbance of samples was recorded at 490 nm (TECAN, Infinita M200, Austria). A standard toxicological parameter IC50 was calculated by nonlinear regression from a semilogarithmic plot of incubation concentration versus percentage of absorbance relative to untre ated controls using GraphPad Prism 8 software.

[4] = tested on: Staphylococcus aureus CCM 4223, ATCC 29213; assay: Antibacterial microdilution broth MIC, SA; format: cell-based; details: Staphylococcus aureus
[5] = tested on: Staphylococcus aureus subsp. aureus CCM 4750, ATCC 43300 (MRSA); assay: Antibacterial microdilution broth MIC, MRSA; format: cell-based; details: Staphylococcus aureus
[6] = tested on: Staphylococcus epidermidis CCM 4418, ATCC 12228; assay: Antibacterial microdilution broth MIC, SE; format: cell-based
[7] = tested on: Enterococcus faecalis CCM 4224, ATCC 29212; assay: Antibacterial microdilution broth MIC, EF; format: cell-based
[8] = tested on: Escherichia coli CCM 3954, ATCC 25922; assay: Antibacterial microdilution broth MIC, EC; format: cell-based
[9] = tested on: Acinetobacter baumannii DSM 30007, ATCC 19606; assay: Antibacterial microdilution broth MIC, ACI; format: cell-based
[10] = tested on: Pseudomonas aeruginosa CCM 3955, ATCC 27853; assay: Antibacterial microdilution broth MIC, PA; format: cell-based
[11] = tested on: Candida albicans CCM 8320, ATCC 24433; assay: Antifungal microdilution broth MIC, CA
[12] = tested on: Candida krusei CCM 8271, ATCC 6258; assay: Antifungal microdilution broth MIC, CK; details: Pichia kudriavzevii
[13] = tested on: Candida parapsilosis CCM 8260, ATCC 22019; assay: Antifungal microdilution broth MIC, CP; details: Lodderomyces parapsilosis
[14] = tested on: Candida tropicalis CCM 8264, ATCC 750; assay: Antifungal microdilution broth MIC, CT
[15] = tested on: Aspergillus fumigatus ATCC 204305; assay: Antifungal microdilution broth MIC, AF
[16] = tested on: Lichtheimia corymbifera CCM 8077; assay: Antifungal microdilution broth MIC, LC
[17] = tested on: Trichophyton interdigitale CCM 8377, ATCC 9533; assay: Antifungal microdilution broth MIC, TI; details: Trichophyton interdigitale
[18] = tested on: Aspergillus flavus CCM 8363; assay: Antifungal microdilution broth MIC, AFla
[19] = tested on: Klebsiella pneumoniae CCM 4415, ATCC 10031; assay: Antibacterial microdilution broth MIC, KP
[20] = ATCC204305, 24 h, read-out: MIC AF 24h
[21] = ATCC204305, 48 h, read-out: MIC AF 48h
[22] = CCM8077, 24 h, read-out: MIC LC 24h
[23] = CCM8077, 48 h, read-out: MIC LC 48h
[24] = CCM8363, 24 h, read-out: MIC AFla 24h
[25] = CCM8363, 48 h, read-out: MIC AFla 48h

| Compound | MIC ([1]; Calculated from MIC (μg/mL)) [µM] | MIC [1] [µg/mL] | MIC [2] [µg/mL] | MIC [3] [µg/mL] | IC50 (HepG2 cell line) [µM] | MIC ([4]; 24 h, read-out: MIC SA 24h) [µM] | MIC ([4]; 48 h, read-out: MIC SA 48h) [µM] | MIC ([5]; 24 h, read-out: MIC MRSA 24h) [µM] | MIC ([5]; 48 h, read-out: MIC MRSA 48h) [µM] | MIC ([6]; 24 h, read-out: MIC SE 24h) [µM] | MIC ([6]; 48 h, read-out: MIC SE 48h) [µM] | MIC ([7]; 24 h, read-out: MIC EF 24h) [µM] | MIC ([7]; 48 h, read-out: MIC EF 48h) [µM] | MIC ([8]; 24 h, read-out: MIC EC 24h) [µM] | MIC ([8]; 48 h, read-out: MIC EC 48h) [µM] | MIC ([9]; 24 h, read-out: MIC ACI 24h) [µM] | MIC ([9]; 48 h, read-out: MIC ACI 48h) [µM] | MIC ([10]; 24 h, read-out: MIC PA 24h) [µM] | MIC ([10]; 48 h, read-out: MIC PA 48h) [µM] | MIC ([11]; 24 h, read-out: MIC CA 24h) [µM] | also measured |
| --- | --- | --- | --- | --- | --- | --- | --- | --- | --- | --- | --- | --- | --- | --- | --- | --- | --- | --- | --- | --- | --- |
| O=C(Cc1ccccc1Cl)Nc1ccccn1 [Compound 13, 2-(2-chlorophenyl)-N-(pyridin-2-yl)acetamide] | 253 | 62.5 | > 500 | 250 (≈ 1010 µM) | 755 | > 500 | > 500 | > 500 | > 500 | 500 (≈ 123 µg/mL) | 500 (≈ 123 µg/mL) | > 500 | > 500 | > 500 | > 500 | > 500 | > 500 | > 500 | > 500 | > 500 | MIC ([11]; 48 h, read-out: MIC CA 48h): > 500 µM; MIC ([12]; 24 h, read-out: MIC CK 24h): > 500 µM; MIC ([12]; 48 h, read-out: MIC CK 48h): > 500 µM; MIC ([13]; 24 h, read-out: MIC CP 24h): > 500 µM; MIC ([13]; 48 h, read-out: MIC CP 48h): > 500 µM; MIC ([14]; 24 h, read-out: MIC CT 24h): > 500 µM; MIC ([14]; 48 h, read-out: MIC CT 48h): > 500 µM; MIC [15, 20]: > 500 µM; MIC [15, 21]: > 500 µM; MIC [16, 22]: > 500 µM; MIC [16, 23]: > 500 µM; MIC ([17]; 72 h, read-out: MIC TI 72h): 500 µM (≈ 123 µg/mL); MIC ([17]; 120 h, read-out: MIC TI 120h): 500 µM (≈ 123 µg/mL); MIC [18, 24]: > 500 µM; MIC [18, 25]: > 500 µM; MIC KP 24h [19]: > 500 µmol/L; MIC KP 48h [19]: > 500 µmol/L |
| O=C(Cc1cccc(C(F)(F)F)c1)Nc1cccc(Cl)n1 [Compound 27] | 99.3 | 31.2 | > 500 | 15.6 (≈ 49.7 µM) | 146 | > 500 | > 500 | > 500 | > 500 | 250 (≈ 78.7 µg/mL) | 250 (≈ 78.7 µg/mL) | > 500 | > 500 | > 500 | > 500 | > 500 | > 500 | > 500 | > 500 | > 500 | SI (selectivity index) ([1]; SI = HepG2 IC50 (μM)/MIC MtbH37Ra (μM), calculated for compounds with MIC ≤ 31.25 μg/mL): 1.5; MIC ([11]; 48 h, read-out: MIC CA 48h): > 500 µM; MIC ([12]; 24 h, read-out: MIC CK 24h): > 500 µM; MIC ([12]; 48 h, read-out: MIC CK 48h): > 500 µM; MIC ([13]; 24 h, read-out: MIC CP 24h): > 500 µM; MIC ([13]; 48 h, read-out: MIC CP 48h): > 500 µM; MIC ([14]; 24 h, read-out: MIC CT 24h): > 500 µM; MIC ([14]; 48 h, read-out: MIC CT 48h): > 500 µM; MIC [15, 20]: > 500 µM; MIC [15, 21]: > 500 µM; MIC [16, 22]: > 500 µM; MIC [16, 23]: > 500 µM; MIC ([17]; 72 h, read-out: MIC TI 72h): > 500 µM; MIC ([17]; 120 h, read-out: MIC TI 120h): > 500 µM; MIC [18, 24]: > 500 µM; MIC [18, 25]: > 500 µM; MIC KP 24h [19]: > 500 µmol/L; MIC KP 48h [19]: > 500 µmol/L |
| COc1ccccc1CC(=O)Nc1cccc(Cl)n1 [Compound 6] | > 1800 | > 500 | > 500 | > 500 | > 500 | > 500 | > 500 | > 500 | > 500 | > 500 | > 500 | > 500 | > 500 | > 500 | > 500 | > 500 | > 500 | > 500 | > 500 | > 500 | MIC ([11]; 48 h, read-out: MIC CA 48h): > 500 µM; MIC ([12]; 24 h, read-out: MIC CK 24h): > 500 µM; MIC ([12]; 48 h, read-out: MIC CK 48h): > 500 µM; MIC ([13]; 24 h, read-out: MIC CP 24h): > 500 µM; MIC ([13]; 48 h, read-out: MIC CP 48h): > 500 µM; MIC ([14]; 24 h, read-out: MIC CT 24h): > 500 µM; MIC ([14]; 48 h, read-out: MIC CT 48h): > 500 µM; MIC [15, 20]: > 500 µM; MIC [15, 21]: > 500 µM; MIC [16, 22]: > 500 µM; MIC [16, 23]: > 500 µM; MIC ([17]; 72 h, read-out: MIC TI 72h): > 500 µM; MIC ([17]; 120 h, read-out: MIC TI 120h): > 500 µM; MIC [18, 24]: > 500 µM; MIC [18, 25]: > 500 µM; MIC KP 24h [19]: > 500 µmol/L; MIC KP 48h [19]: > 500 µmol/L |
